What was measured:
EP4 = EP4 (Homo sapiens (Human), UniProt P35408); experiment: hEP4 cAMP assay (BT549 breast cancer cells, HTRF cAMP); type: cell-based; details: antagonistic activity, PGE2 6 nM
Procedure, shortened: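 cAMP accumulation quantified by HTRF competition between cellular cAMP and d2-labeled cAMP for cryptate anti-cAMP antibody. Cells: endogenously EP4-expressing BT549, buffer with 2 mM IBMX; 45 min RT compound preincubation preceded 30 min RT challenge with PGE2 at 6 nM final.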

PTGER2 (EP2) = PTGER2 (EP2) (Homo sapiens (Human), UniProt P43116); experiment: hEP2 b-arrestin assay (PathHunter HEK 293 PTGER2 b-arrestin cells); type: cell-based; details: antagonistic activity, beta-arrestin assay; read-out: hEP2 b-arr IC50
Sequence of PTGER2 (EP2) (P43116 whole entry): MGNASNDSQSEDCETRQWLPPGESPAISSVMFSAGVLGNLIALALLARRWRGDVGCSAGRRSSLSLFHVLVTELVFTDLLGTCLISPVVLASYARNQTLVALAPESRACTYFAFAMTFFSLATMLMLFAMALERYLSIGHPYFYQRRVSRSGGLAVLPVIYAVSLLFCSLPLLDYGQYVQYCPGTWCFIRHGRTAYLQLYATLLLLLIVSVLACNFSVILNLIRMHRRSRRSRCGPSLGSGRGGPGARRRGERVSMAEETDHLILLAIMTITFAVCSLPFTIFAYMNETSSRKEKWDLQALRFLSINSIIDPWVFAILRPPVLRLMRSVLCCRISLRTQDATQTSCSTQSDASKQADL
Protocol: Plate is pre-incubated 15 minutes at 37° C. Then five microliters of PGE2 (final conc. 5 μM) are transferred into the assay plate. Plate is incubated 120 minutes at 37° C.
(each concentration is measured in duplicate)

PTGER4 (EP4) = PTGER4 (EP4) (Homo sapiens (Human), UniProt P35408); experiment: cell-based
Sequence of PTGER4 (EP4) (P35408 whole entry): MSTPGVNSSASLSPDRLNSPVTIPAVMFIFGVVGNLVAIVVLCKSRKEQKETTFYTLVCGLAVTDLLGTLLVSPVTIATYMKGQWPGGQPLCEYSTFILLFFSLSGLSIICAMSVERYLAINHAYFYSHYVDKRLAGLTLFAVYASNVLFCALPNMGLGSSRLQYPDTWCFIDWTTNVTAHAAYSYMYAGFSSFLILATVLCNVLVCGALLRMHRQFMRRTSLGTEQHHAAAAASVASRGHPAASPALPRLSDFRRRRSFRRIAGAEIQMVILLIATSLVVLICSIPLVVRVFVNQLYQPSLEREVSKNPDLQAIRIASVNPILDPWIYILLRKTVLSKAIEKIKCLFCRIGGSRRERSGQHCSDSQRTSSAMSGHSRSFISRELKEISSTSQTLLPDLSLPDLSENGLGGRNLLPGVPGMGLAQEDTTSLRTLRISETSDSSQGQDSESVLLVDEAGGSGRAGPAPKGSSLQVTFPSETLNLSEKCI

EP2 = EP2 (Homo sapiens (Human), UniProt P43116); experiment: hEP2 cAMP assay (SF295 glioblastoma cells, HTRF cAMP); type: cell-based; details: antagonistic activity
Sequence of EP2 (P43116 whole entry): as the sequence (P43116 whole entry) above
Procedure, shortened: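 PGE2-driven cAMP accumulation was measured by HTRF in SF295 cells, which express endogenous EP2 only. Cells in assay buffer with 2 mM IBMX were pre-incubated 45 min at RT, then incubated 30 min at RT. Detection used competition between cellular cAMP and d2-cAMP for a cryptate anti-cAMP antibody.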

Sequence of EP4 (P35408 whole entry): as the sequence (P35408 whole entry) above

Q: Which results are given for `CCOc1cc(-c2cc(NCCc3ccc4c(c3)OCO4)ncn2)sc1-c1noc(=O)[nH]1` [Example 344, 3-{5-[6-(2-Benzo[1,3]dioxol-5-yl-ethylamino)-pyrimidin-4-yl]-3-ethoxy-thiophen-2-yl}-[1,2,4]oxadiazol-5(4H)-one]?
A: IC50 (EP4): 14 nM; IC50 (PTGER2 (EP2)): 33 nM; IC50 (PTGER4 (EP4)): 39 nM; IC50 (EP2): 33 nM

Q: `COc1cc2c(cc1CCNc1cc(-c3ccc4cc(C(=O)O)oc4c3)ncn1)OCCO2` [Ex 81, 6-{6-[2-(7-Methoxy-2,3-dihydro-benzo[1,4]dioxin-6-yl)-ethylamino]-pyrimidin-4-yl}-benzofuran-2-carboxylic acid] was tested. Which IC50 (EP4) did it give?
A: 164 nM

Q: What about the IC50 (PTGER2 (EP2)) of the same molecule?
A: 122 nM

Q: And the IC50 (PTGER4 (EP4))?
A: 1840 nM

Q: And the IC50 (EP2)?
A: 123 nM

Q: How did the IC50 (EP4) turn out when `CCOc1cc(-c2cc(NCCc3ccc4ccccc4c3C)ncn2)ccc1NCC(=O)O` [Ex 205] was run?
A: 244 nM

Q: And the IC50 (PTGER2 (EP2))?
A: 118 nM

Q: What about the IC50 (PTGER4 (EP4)) of the same molecule?
A: 47 nM

Q: And the IC50 (EP2)?
A: 190 nM

Q: Which IC50 (EP4) does the source give for `CCOc1cc(-c2cc(NCCc3cc4c(cc3C)OCCO4)ncn2)ccc1OCC(=O)O` [Ex 184, (2-Ethoxy-4-{6-[2-(7-methyl-2,3-dihydro-benzo[1,4]dioxin-6-yl)-ethylamino]-pyrimidin-4-yl}-phenoxy)-acetic acid] here?
A: 200 nM

Q: And the IC50 (PTGER2 (EP2))?
A: 171 nM

Q: What about the IC50 (PTGER4 (EP4)) of the same molecule?
A: 378 nM

Q: What about the IC50 (EP2) of the same molecule?
A: 164 nM

Q: For `CCCc1cc(-c2cc(NCCc3ccc4sccc4c3F)ncn2)ccc1CC(=O)O` [Example 386, (4-{6-[2-(4-Fluoro-benzo[b]thiophen-5-yl)-ethylamino]-pyrimidin-4-yl}-2-propyl-phenyl)-acetic acid], which IC50 (EP4) is on record?
A: 54 nM

Q: And the IC50 (PTGER2 (EP2))?
A: 64 nM

Q: What about the IC50 (PTGER4 (EP4)) of the same molecule?
A: 28 nM

Q: What about the IC50 (EP2) of the same molecule?
A: 453 nM

Q: How did the IC50 (EP4) turn out when `CCOc1cc(-c2cc(NCCc3cc4ccsc4cc3C)ncn2)sc1C(=O)O` [Ex 34, 3-Ethoxy-5-{6-[2-(6-methyl-benzo[b]thiophen-5-yl)-ethylamino]-pyrimidin-4-yl}-thiophene-2-carboxylic acid] was run?
A: 18 nM

Q: And the IC50 (PTGER2 (EP2))?
A: 6 nM

Q: And the IC50 (PTGER4 (EP4))?
A: 25 nM

Q: And the IC50 (EP2)?
A: 8 nM

Q: Which IC50 (EP4; BT549 cells) does the source give for `CCOc1cc2ccccc2c(C)c1CCNc1cc(-c2ccc(C(=O)O)c(SC)c2)ncn1` [Example 419, 4-{6-[2-(3-Ethoxy-1-methyl-naphthalen-2-yl)-ethylamino]-pyrimidin-4-yl}-2-methylsulfanyl-benzoic acid] here?
A: 85 nM

Q: And the IC50 (PTGER2 (EP2))?
A: 3 nM

Q: And the IC50 (PTGER4 (EP4))?
A: 30 nM

Q: And the IC50 (EP2)?
A: 29 nM

Q: With `CCOc1cc2c(cc1CCNc1cc(-c3ccc(CC(=O)O)c(OCC)c3)ncn1)OCCO2` [Ex 192, (2-Ethoxy-4-{6-[2-(7-ethoxy-2,3-dihydro-benzo[1,4]dioxin-6-yl)-ethylamino]-pyrimidin-4-yl}-phenyl)-acetic acid] as the molecule, how does the IC50 (EP4) read?
A: 210 nM

Q: What about the IC50 (PTGER2 (EP2)) of the same molecule?
A: 76 nM

Q: And the IC50 (PTGER4 (EP4))?
A: 153 nM

Q: And the IC50 (EP2)?
A: 69 nM

Q: Which IC50 (EP4; BT549 cells) does the source give for `CCOc1cc(-c2cc(NCCc3c(OCC)cc4ccccc4c3F)ncn2)ccc1C(=O)O` [Example 436, 2-Ethoxy-4-{6-[2-(3-ethoxy-1-fluoro-naphthalen-2-yl)-ethylamino]-pyrimidin-4-yl}-benzoic acid] here?
A: 57 nM

Q: And the IC50 (PTGER2 (EP2))?
A: 16 nM

Q: What about the IC50 (PTGER4 (EP4)) of the same molecule?
A: 31 nM

Q: And the IC50 (EP2)?
A: 110 nM

Q: What does the source list for `CCOc1cc2c(cc1CCNc1cc(-c3cc(OCC)c(C(=O)O)s3)ncn1)OCCO2` [Ex 39, 3-Ethoxy-5-{6-[2-(7-ethoxy-2,3-dihydro-benzo[1,4]dioxin-6-yl)-ethylamino]-pyrimidin-4-yl}-thiophene-2-carboxylic acid]?
A: IC50 (EP4): 19 nM; IC50 (PTGER2 (EP2)): 4 nM; IC50 (PTGER4 (EP4)): 14 nM; IC50 (EP2): 2 nM

Q: `CCOc1nc(-c2cc(NCCc3ccc4ccccc4c3C)ncn2)sc1-c1noc(=O)[nH]1` [Example 352, 3-(4-Ethoxy-2-{6-[2-(1-methyl-naphthalen-2-yl)-ethylamino]-pyrimidin-4-yl}-thiazol-5-yl)-[1,2,4]oxadiazol-5(4H)-one] was tested. Which IC50 (EP4) did it give?
A: 24 nM

Q: What about the IC50 (PTGER2 (EP2)) of the same molecule?
A: 42 nM

Q: And the IC50 (PTGER4 (EP4))?
A: 5 nM

Q: And the IC50 (EP2)?
A: 142 nM

— patent US11839613B2, “Pyrimidine derivatives as PGE2 receptor modulators” (IDORSIA PHARMACEUTICALS LTD, priority 2017, dated 2023)
